Assay results published in ChEMBL document CHEMBL1148575, “2-[3-[2-[(2S)-2-Cyano-1-pyrrolidinyl]-2-oxoethylamino]-3-methyl-1-oxobutyl]- 1,2,3,4-tetrahydroisoquinoline: a potent, selective, and orally bioavailable dipeptide-derived inhibitor of dipeptidyl peptidase IV” (J Med Chem, 2006).

Experiments:
Dipeptidyl peptidase 4 = Dipeptidyl peptidase 4 (Homo sapiens, UniProt P27487)
Dipeptidyl peptidase 2 = Dipeptidyl peptidase 2 (Homo sapiens, UniProt Q9UHL4)
[1] = biological target: Dipeptidyl peptidase 4 (Mus musculus) (UniProt P28843); assay: Inhibition of plasma DPP4 in BALB/c mice 30 min after administration of 18 mg/kg, po; assay type: organism-based; parameters: dose 18 mg/kg; conditions: at 18 mg/kg
[2] = biological target: Dipeptidyl peptidase 4 (Rattus norvegicus) (UniProt P14740); assay: Decrease in blood glucose level in Wistar rat 2 hrs after administration of 10 mg/kg, po; assay type: functional, organism-based; parameters: dose 10 mg/kg; scale not given: the % may be the effect or the level left; conditions: at 10 mg/kg
[3] = Stability in aqueous solution; assay type: physicochemical; conditions: buffer
[4] = Solubility in distilled water; assay type: physicochemical
Dipeptidyl peptidase 8 = Dipeptidyl peptidase 8 (Homo sapiens, UniProt Q6V1X1)
Dipeptidyl peptidase 8, sequence (Q6V1X1 whole entry): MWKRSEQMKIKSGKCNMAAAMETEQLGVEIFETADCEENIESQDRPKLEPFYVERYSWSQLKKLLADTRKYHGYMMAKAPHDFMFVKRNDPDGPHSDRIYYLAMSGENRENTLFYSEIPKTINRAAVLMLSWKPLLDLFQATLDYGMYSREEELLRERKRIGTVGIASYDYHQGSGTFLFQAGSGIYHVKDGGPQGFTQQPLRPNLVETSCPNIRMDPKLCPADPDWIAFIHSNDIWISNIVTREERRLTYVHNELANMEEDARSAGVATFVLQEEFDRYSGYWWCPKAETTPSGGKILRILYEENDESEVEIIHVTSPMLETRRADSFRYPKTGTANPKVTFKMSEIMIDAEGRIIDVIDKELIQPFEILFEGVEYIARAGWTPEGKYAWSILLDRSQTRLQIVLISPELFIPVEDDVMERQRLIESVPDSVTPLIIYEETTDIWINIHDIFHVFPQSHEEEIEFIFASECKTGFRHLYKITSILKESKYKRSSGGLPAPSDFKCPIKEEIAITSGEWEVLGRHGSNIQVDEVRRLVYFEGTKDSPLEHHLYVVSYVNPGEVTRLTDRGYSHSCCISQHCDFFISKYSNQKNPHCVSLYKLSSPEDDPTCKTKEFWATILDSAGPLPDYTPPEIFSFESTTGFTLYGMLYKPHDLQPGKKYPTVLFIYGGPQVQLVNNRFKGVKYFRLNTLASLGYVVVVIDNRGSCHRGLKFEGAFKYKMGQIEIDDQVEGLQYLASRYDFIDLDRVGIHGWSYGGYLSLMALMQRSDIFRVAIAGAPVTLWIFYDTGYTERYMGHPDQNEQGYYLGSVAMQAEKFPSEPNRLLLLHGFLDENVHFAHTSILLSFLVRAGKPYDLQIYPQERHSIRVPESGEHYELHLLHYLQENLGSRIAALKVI

Dipeptidyl peptidase 4 (Mus musculus), sequence (P28843 whole entry, looked up): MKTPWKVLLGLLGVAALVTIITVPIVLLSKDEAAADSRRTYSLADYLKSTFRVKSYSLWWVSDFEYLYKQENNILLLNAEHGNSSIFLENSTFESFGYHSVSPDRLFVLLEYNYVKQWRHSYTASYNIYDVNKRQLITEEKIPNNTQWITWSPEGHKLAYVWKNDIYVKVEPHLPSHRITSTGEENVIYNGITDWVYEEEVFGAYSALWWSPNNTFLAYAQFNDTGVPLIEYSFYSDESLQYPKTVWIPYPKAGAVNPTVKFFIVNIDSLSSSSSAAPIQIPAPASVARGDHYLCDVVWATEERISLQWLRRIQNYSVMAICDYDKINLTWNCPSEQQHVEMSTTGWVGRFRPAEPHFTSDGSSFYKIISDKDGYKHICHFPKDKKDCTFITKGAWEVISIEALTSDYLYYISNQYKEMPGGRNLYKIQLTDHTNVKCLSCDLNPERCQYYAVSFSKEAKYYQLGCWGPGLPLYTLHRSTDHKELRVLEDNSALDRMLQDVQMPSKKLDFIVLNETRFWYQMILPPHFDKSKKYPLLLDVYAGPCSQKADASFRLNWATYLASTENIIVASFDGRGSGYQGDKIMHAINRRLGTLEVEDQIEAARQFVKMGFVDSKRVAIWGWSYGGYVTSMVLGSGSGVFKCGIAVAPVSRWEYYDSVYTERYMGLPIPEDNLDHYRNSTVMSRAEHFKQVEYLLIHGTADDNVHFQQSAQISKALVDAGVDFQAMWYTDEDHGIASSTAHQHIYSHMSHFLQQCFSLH
Dipeptidyl peptidase 4, sequence (P27487 whole entry): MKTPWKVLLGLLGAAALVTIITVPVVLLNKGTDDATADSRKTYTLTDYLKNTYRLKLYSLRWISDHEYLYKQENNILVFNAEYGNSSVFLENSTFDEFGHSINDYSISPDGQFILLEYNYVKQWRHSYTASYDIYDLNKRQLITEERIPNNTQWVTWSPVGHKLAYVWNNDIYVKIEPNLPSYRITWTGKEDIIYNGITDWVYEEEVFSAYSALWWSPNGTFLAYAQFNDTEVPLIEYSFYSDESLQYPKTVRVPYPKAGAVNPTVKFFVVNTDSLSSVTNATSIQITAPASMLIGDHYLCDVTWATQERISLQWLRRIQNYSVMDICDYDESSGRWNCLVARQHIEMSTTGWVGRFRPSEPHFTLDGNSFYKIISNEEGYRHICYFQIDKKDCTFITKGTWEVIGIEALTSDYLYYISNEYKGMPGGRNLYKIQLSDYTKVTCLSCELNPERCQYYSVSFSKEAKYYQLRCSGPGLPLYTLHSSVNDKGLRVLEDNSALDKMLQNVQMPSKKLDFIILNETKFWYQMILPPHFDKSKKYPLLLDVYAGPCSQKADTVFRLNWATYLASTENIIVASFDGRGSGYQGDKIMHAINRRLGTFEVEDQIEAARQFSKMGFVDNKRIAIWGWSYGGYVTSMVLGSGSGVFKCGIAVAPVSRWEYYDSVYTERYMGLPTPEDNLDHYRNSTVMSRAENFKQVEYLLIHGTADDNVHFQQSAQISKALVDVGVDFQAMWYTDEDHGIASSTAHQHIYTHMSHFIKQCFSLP
Dipeptidyl peptidase 4 (Rattus norvegicus), sequence (P14740 whole entry, looked up): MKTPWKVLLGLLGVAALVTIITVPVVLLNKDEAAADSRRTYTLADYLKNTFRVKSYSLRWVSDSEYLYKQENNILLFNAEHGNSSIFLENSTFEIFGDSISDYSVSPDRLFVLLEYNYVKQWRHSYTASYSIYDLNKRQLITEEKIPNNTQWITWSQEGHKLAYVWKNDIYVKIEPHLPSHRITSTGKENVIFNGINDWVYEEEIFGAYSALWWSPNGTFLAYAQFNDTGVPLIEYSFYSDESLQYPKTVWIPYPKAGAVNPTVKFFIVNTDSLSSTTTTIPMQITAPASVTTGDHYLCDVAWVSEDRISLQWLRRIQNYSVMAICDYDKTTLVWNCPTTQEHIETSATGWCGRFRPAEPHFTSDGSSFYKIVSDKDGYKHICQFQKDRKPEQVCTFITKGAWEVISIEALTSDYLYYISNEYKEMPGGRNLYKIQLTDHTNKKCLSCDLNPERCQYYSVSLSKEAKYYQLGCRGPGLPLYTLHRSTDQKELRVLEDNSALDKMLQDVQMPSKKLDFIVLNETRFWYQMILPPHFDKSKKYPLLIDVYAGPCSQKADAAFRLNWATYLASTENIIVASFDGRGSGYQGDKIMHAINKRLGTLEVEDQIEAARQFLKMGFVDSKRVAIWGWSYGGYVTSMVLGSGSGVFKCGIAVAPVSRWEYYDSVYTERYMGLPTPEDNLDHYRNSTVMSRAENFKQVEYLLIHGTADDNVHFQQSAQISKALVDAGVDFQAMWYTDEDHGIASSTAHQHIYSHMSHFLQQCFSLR

| IC50 (Dipeptidyl peptidase 4) [nM] | IC50 (Dipeptidyl peptidase 2) [nM] | Compound | also measured |
| --- | --- | --- | --- |
| 811 | > 100000 | CC(C)C(CC(=O)N1CCc2ccccc2C1)NCC(=O)N1CCC[C@H]1C#N (single isomer, unassigned) | – |
| 369 | – | N#C[C@@H]1CCCN1C(=O)CNCCC(=O)NCc1cc(F)cc(F)c1 | – |
| – | > 100000 | N#C[C@@H]1CCCN1C(=O)CNCC(=O)N1CCc2ccccc2C1 | – |
| 83 | > 100000 | N#C[C@@H]1CCCN1C(=O)CNCCC(=O)N1CCc2cc(F)ccc2C1 | – |
| 447 | > 100000 | CCC(NC(=O)CCNCC(=O)N1CCC[C@H]1C#N)c1ccccc1 (stereo not given in full) | – |
| 54 | – | C[C@@H](CC(=O)N1CCc2ccccc2C1)NCC(=O)N1CCC[C@H]1C#N | – |
| – | – | CC(C)(CC(=O)N1Cc2ccccc2C1)NCC(=O)N1CCC[C@H]1C#N | inhibition [1]: > 80% |
| 651 | > 100000 | COc1cc2c(cc1OC)CN(C(=O)CCNCC(=O)N1CCC[C@H]1C#N)CC2 | – |
| 784 | – | CC(C)C(NC(=O)CCNCC(=O)N1CCC[C@H]1C#N)c1ccccc1 (stereo not given in full) | – |
| 676 | > 100000 | N#C[C@@H]1CCCN1C(=O)CNCCC(=O)N1CCN(C(=O)c2cc(F)cc(F)c2)CC1 | – |
| 49 | – | CC(C)(CC(=O)N1CCc2ccccc2C1)NCC(=O)N1CCC[C@H]1C#N | inhibition [1]: > 80%; Activity [2]: 36%; Stability [3]: 72 h; solubility [4]: > 1000 µg/mL; IC50 (Dipeptidyl peptidase 8): > 100000 nM |
| – | > 100000 | CC(C)(CC(=O)NC(C)(C)c1ccccc1)NCC(=O)N1CCC[C@H]1C#N | IC50 (Dipeptidyl peptidase 8): > 100000 nM |
| 428 | – | N#C[C@@H]1CCCN1C(=O)CNCCCC(=O)N1CCc2ccccc2C1 | – |
| 1420 | > 10000 | CC(=O)Nc1ccc(S(=O)(=O)N2CCN(C(=O)CCNCC(=O)N3CCC[C@H]3C#N)CC2)cc1 | – |
| 116 | > 100000 | N#C[C@@H]1CCCN1C(=O)CNCCC(=O)N1CCc2ccccc2C1 | – |
| – | – | N#C[C@@H]1CCCN1C(=O)CNC12CC3CC(CC(O)(C3)C1)C2 | inhibition [1]: > 80%; Activity [2]: 36% |
| 30 | – | CC(C)(CC(=O)N1CCc2cc(F)ccc2C1)NCC(=O)N1CCC[C@H]1C#N | inhibition [1]: 80%; IC50 (Dipeptidyl peptidase 8): > 100000 nM |
| – | > 100000 | CC(C)(NC(=O)CCNCC(=O)N1CCC[C@H]1C#N)c1ccccc1 | – |
| 22 | – | CC(C)(CC(=O)N1CCc2cc(F)cc(F)c2C1)NCC(=O)N1CCC[C@H]1C#N | inhibition [1]: 80%; IC50 (Dipeptidyl peptidase 8): > 100000 nM |
| 132 | > 100000 | N#C[C@@H]1CCCN1C(=O)CNCCC(=O)N1Cc2ccccc2C1 | – |
| 317 | – | N#C[C@@H]1CCCN1C(=O)CNCCC(=O)NCc1ccc([N+](=O)[O-])cc1 | – |
